How the values were obtained:
human TLR9 = target: T1, human TLR9 (Homo sapiens, UniProt Q9NR96); assay: Primary assay: HEK/TLR9 activation (NF-kB luciferase reporter, Oligo CpG 2006 stimulation); format: cell-based; details: HEK293 transfected with human TLR9 and NF-kB luciferase; compound 30 min before Oligo CpG 2006; overnight; read-out: HEK/TLR9 IC50
T1 construct: expressed in transfected cells; host or cells: HEK293 (ATCC No. CRP-1573 [sic])
T1 sequence (Q9NR96 26-1032): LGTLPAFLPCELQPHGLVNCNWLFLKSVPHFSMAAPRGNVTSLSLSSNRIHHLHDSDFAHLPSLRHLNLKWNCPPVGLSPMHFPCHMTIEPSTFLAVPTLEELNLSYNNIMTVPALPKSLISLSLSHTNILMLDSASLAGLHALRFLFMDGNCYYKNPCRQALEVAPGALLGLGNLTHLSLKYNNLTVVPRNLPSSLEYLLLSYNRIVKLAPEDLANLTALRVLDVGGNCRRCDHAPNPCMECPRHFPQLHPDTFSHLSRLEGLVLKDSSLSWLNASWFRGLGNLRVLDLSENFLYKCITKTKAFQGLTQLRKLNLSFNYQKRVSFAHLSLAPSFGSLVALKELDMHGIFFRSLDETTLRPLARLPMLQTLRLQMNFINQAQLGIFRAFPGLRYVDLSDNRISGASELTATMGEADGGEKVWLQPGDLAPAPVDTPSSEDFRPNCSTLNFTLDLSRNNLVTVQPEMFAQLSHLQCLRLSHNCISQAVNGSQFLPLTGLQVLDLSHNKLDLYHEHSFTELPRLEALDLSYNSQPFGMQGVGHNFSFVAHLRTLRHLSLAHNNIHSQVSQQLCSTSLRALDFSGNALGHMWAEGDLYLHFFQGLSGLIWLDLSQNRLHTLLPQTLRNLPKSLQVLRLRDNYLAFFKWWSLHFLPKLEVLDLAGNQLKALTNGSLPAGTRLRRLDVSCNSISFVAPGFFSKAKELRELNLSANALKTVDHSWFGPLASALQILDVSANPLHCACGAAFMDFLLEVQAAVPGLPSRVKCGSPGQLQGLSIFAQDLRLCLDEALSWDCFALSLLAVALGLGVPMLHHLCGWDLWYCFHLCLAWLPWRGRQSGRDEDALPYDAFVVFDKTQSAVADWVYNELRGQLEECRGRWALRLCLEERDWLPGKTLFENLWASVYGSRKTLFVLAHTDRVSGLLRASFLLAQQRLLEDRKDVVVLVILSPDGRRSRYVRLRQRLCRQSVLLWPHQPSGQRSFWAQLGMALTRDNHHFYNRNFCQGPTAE
Excerpt: A. Primary Assay. The primary assay involved transfecting human embryonic kidney epithelial (HEK) cells with TLR9. More specifically, HEK293 […] cells (ATCC No. CRP-1573, American Type Culture Collection, Manassas, Va.) were transfected with pcDNA3.1D/V5-His-TOPO® plasmid (Invitrogen, Carlsbad, Calif.) encoding human TLR9 (directly inserted as a Tag polymerase-amplified PCR product) and firefly luciferase under the control of three NF-kB binding sites contained in the E-selectin-1 promoter, which was cloned into a pGL3-Enhancer Vector (Promega Corp, Madison, Wis.). Each compound was added to cells 30 min. before stimulation with Oligo CpG 2006, a synthetic phosphorothioate oligonucleotide (Hartmann et al., J Immunol. 164:1617-24 (2000)), with nucleotide sequence 5′-TCGTCGTTTTGTCGTTTTGTCGTT-3′ (SEQ ID NO:1). The cells were incubated overnight at 37° C. The luciferase substrate Steady-Glo® (Promega) was added to the wells, and luminescence was measured to determine the extent of TLR9-driven gene activation. The luminescence data was used to calculate an IC50 for each sample. The IC50 is defined as the concentration of compound that suppresses the luminescence to 50% of that observed in the absence of compound, in other words, with full stimulation.

human TLR7 = target: T2, human TLR7 (Homo sapiens, UniProt Q9NYK1); assay: HEK/TLR7 activation assay (R848 stimulation); format: cell-based; details: HEK cells transfected with human TLR7
T2 construct: expressed in transfected cells; host or cells: HEK cell line (HEK293, as in the primary assay)
T2 sequence (Q9NYK1 27-1049): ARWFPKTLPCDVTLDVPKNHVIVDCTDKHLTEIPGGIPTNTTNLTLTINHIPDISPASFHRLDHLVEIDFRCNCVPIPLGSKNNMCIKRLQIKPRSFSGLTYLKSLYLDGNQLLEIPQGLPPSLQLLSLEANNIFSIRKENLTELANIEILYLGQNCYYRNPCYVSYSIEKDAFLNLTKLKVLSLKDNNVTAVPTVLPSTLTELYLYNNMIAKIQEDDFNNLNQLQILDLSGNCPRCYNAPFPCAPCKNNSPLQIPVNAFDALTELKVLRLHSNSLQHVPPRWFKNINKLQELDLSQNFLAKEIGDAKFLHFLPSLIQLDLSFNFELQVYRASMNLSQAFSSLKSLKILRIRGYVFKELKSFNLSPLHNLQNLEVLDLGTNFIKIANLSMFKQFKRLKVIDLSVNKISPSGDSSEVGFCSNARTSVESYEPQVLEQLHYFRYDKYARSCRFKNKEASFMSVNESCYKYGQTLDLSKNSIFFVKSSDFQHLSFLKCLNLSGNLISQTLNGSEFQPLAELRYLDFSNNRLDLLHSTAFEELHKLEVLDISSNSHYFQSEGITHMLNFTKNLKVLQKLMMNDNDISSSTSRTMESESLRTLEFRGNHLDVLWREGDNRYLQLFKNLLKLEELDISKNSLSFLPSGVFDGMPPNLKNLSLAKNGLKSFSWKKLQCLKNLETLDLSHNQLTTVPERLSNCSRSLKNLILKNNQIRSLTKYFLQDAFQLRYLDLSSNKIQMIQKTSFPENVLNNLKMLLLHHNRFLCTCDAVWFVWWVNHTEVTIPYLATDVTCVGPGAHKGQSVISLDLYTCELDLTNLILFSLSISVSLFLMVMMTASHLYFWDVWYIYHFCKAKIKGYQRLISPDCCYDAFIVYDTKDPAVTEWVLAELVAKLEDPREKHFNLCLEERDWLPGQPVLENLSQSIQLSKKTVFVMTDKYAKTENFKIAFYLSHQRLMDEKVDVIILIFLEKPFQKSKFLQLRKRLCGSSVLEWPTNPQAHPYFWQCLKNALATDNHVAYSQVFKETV
Description: (1) HEK/TLR7Activation Assay: The same compounds were tested in the same way as the primary assay with the following differences. The plasmid used to transfect the HEK cell line encoded for human TLR7 instead of TLR9, and R848 was used to stimulate the cells instead of Oligo CpG 2006.

SMILES	IC50 (human TLR9)	IC50 (human TLR7)
c1cc(-c2nc3ccc(OCCCN4CCC(N5CCCC5)CC4)cc3o2)ccc1OCCCN1CCC(N2CCCC2)CC1 [Compound 20]	0.0125 µM	1.82 µM
CN(C)CCCOc1ccc(-c2nc3ccc(OCCCN(C)C)cc3o2)cc1 [Compound 2]	0.0154 µM	2.21 µM
c1cc(-c2nc3ccc(OCCCN4CCCCC4)cc3o2)ccc1OCCCN1CCCCC1 [Compound 30]	0.0121 µM	1.14 µM
c1cc(-c2nc3ccc(OCCCN4CCCC4)cc3o2)ccc1OCCCN1CCCC1 [Compound 23]	0.0111 µM	1.55 µM
c1cc(CN2CCOCC2)ccc1CNCCCOc1ccc(-c2nc3ccc(OCCCNCc4ccc(CN5CCOCC5)cc4)cc3o2)cc1 [Compound 13]	0.0071 µM	0.46 µM
CN1CCCN(CCCOc2ccc(-c3nc4ccc(OCCCN5CCCN(C)CC5)cc4o3)cc2)CC1 [Compound 14]	0.0056 µM	0.62 µM
CN1CCN(c2ccc(CNCCCOc3ccc(-c4nc5ccc(OCCCNCc6ccc(N7CCN(C)CC7)cc6)cc5o4)cc3)cc2)CC1 [Compound 11]	0.0048 µM	0.47 µM
CCN(CC)CCN(C)CCCOc1ccc(-c2nc3ccc(OCCCN(C)CCN(CC)CC)cc3o2)cc1 [Compound 31]	0.0072 µM	0.44 µM
CN(C)CCN(C)CCCOc1ccc(-c2nc3ccc(OCCCN(C)CCN(C)C)cc3o2)cc1 [Compound 22]	0.0087 µM	0.5 µM
CN(C)CCCN(C)CCCOc1ccc(-c2nc3ccc(OCCCN(C)CCCN(C)C)cc3o2)cc1 [Compound 27]	0.0034 µM	0.98 µM
CCN(CC)CCNCCCOc1ccc(-c2nc3ccc(OCCCNCCN(CC)CC)cc3o2)cc1 [Compound 12]	0.0058 µM	0.78 µM
CN(C)[C@@H]1CCN(CCCOc2ccc(-c3nc4ccc(OCCCN5CC[C@@H](N(C)C)C5)cc4o3)cc2)C1 [Compound 16]	0.0055 µM	0.43 µM
